In EP1724268A1, “COMPOUND HAVING TGF-BETA INHIBITORY ACTIVITY AND PHARMACEUTICAL COMPOSITION CONTAINING SAME” (KIRIN BEER KABUSHIKI KAISHA, priority 2004, dated 2005):

System: TGFβ signal
Test: TGFβ signal inhibitory activity, (SBE)4-Luc reporter in A549 cells (Test Examples 1A and 1B)
Type: cell-based, human
Settings: Homo sapiens, A549, compounds of Reference Examples (Test Example 1B), read-out: TGFβ inhibition rate, %
How it was run: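 Stable A549 line carrying (SBE)4-Luc Smad3-binding reporter treated with compound plus TGFβ-1 (2 ng/ml) for 4 hr; luciferase read by chemiluminescence. Percent inhibition relative to TGFβ-only and untreated cells, tested at 3 µM and 10 µM, some also at 1 µM.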

Structure (SMILES) | inhibition at 3 µM [%] | inhibition at 10 µM [%] | inhibition at 1 µM (1 µM) [%]
COc1cc2nccc(Oc3ccc(C)cc3C(=O)c3ccc(OCCN4CCOCC4)cc3)c2cc1OC [Compound r191] | 39 | 93 | –
COc1cc2nccc(Oc3cc(C)c(C)cc3C(C)=NN)c2cc1OC [Compound r193, {1-[2-(6,7-Dimethoxy-quinolin-4-yloxy)-4,5-dimethylphenyl]-ethylidene}-hydrazine] | 74 | 99 | –
COc1cc2nccc(Oc3cc(C)c(C)cc3C(C)=NNc3ccccn3)c2cc1OC [Compound r194] | 47 | 94 | –
COc1cc2nccc(Oc3cc(C)c(C)cc3C(C)=NO)c2cc1OC [Compound r195] | 99 | 100 | –
C=CCON=C(C)c1cc(C)c(C)cc1Oc1ccnc2cc(OC)c(OC)cc12 [Compound r197] | 40 | 88 | –
COc1cc2nccc(Oc3cc4ccccc4cc3C(C)=O)c2cc1OC [Compound r200, 1-[3-(6,7-Dimethoxy-quinolin-4-yloxy)-naphthalene-2-yl]-ethanone] | 94 | 100 | –
COc1cc2nccc(Oc3cccnc3OC3CCCC3)c2cc1OC [Compound r204, 4-(2-Cyclopentyloxy-pyridin-3-yloxy)-6,7-dimethoxy-quinoline] | 14 | 77 | –
COc1ccc(Oc2ccnc3cc(OC)c(OC)cc23)cn1 [Compound r207, 6,7-Dimethoxy-4-(6-methoxy-pyridin-3-yloxy)-quinoline] | 77 | 99 | –
COc1cc2nccc(Oc3ccc(C)nc3C)c2cc1OC [Compound r209] | 99 | 100 | –
COc1cc2nccc(Oc3ccc(C)nc3C#N)c2cc1OC [Compound r213, 3-(6,7-Dimethoxy-quinolin-4-yloxy)-6-methyl-pyridin-2-carbonitrile] | 28 | 65 | –
COc1cc2nccc(Oc3ccc(C)nc3C(OC(C)=O)c3cccc(C)n3)c2cc1OC (stereo not drawn) [Compound r219] | 20 | 67 | –
COc1cc2nccc(Oc3ccc(C)nc3C(=O)c3ccccc3)c2cc1OC [Compound r220] | 99 | 100 | –
COc1cc2nccc(Oc3ccc(C)nc3-c3ccccc3)c2cc1OC [Compound r223, 6,7-Dimethoxy-4-(6-methyl-2-phenyl-pyridin-3-yloxy)-quinoline] | 99 | 100 | –
COc1cc2nccc(Oc3ccc(C)nc3-c3ccccc3C)c2cc1OC [Compound r224] | 69 | 96 | –
COc1cc2nccc(Oc3ccc(C)nc3-c3ccccc3C(C)=O)c2cc1OC [Compound r225] | 39 | 78 | –
COc1cc2nccc(Oc3ccc(C)nc3-c3ccccc3O)c2cc1OC [Compound r226] | 60 | 96 | –
COc1cc2nccc(Oc3ccc(C)nc3-c3ccccc3OC)c2cc1OC [Compound r227] | 50 | 87 | –
COc1cc2nccc(Oc3ccc(C)nc3-c3ccccc3Cl)c2cc1OC [Compound r228] | 88 | 100 | –
COc1cc2nccc(Oc3ccc(C)nc3-c3cccc(C)c3)c2cc1OC [Compound r229] | 99 | 100 | –
COc1cc2nccc(Oc3ccc(C)nc3-c3cccc(C(F)(F)F)c3)c2cc1OC [Compound r230] | 60 | 97 | –

Structure (SMILES) | inhibition at 3 µM [%] | inhibition at 10 µM [%] | inhibition at 1 µM (1 µM) [%]
COc1cc2nccc(Oc3ccc(C)nc3-c3cccc(CO)c3)c2cc1OC [Compound r231] | 100 | 100 | –
COc1cc2nccc(Oc3ccc(C)nc3-c3cccc(C(C)=O)c3)c2cc1OC [Compound r232] | 66 | 79 | –
COc1cc2nccc(Oc3ccc(C)nc3-c3cccc(C(N)=O)c3)c2cc1OC [Compound r233] | 98 | 100 | –
COc1cc2nccc(Oc3ccc(C)nc3-c3cccc(C#N)c3)c2cc1OC [Compound r234] | 87 | 100 | –
COc1cc2nccc(Oc3ccc(C)nc3-c3cccc(N)c3)c2cc1OC [Compound r235] | 100 | 100 | –
COc1cc2nccc(Oc3ccc(C)nc3-c3cccc(NC(C)=O)c3)c2cc1OC [Compound r236] | 90 | 100 | –
COc1cc2nccc(Oc3ccc(C)nc3-c3cccc(O)c3)c2cc1OC [Compound r237] | 100 | 100 | –
COc1cccc(-c2nc(C)ccc2Oc2ccnc3cc(OC)c(OC)cc23)c1 [Compound r238] | 92 | 100 | –
CCOc1cccc(-c2nc(C)ccc2Oc2ccnc3cc(OC)c(OC)cc23)c1 [Compound r239] | 83 | 100 | –
COc1cc2nccc(Oc3ccc(C)nc3-c3cccc(F)c3)c2cc1OC [Compound r240] | 100 | 100 | –
COc1cc2nccc(Oc3ccc(C)nc3-c3cccc(Cl)c3)c2cc1OC [Compound r241] | 96 | 100 | –
COc1cc2nccc(Oc3ccc(C)nc3-c3ccc(C)cc3)c2cc1OC [Compound r242] | 68 | 99 | –
COc1cc2nccc(Oc3ccc(C)nc3-c3ccc(C(C)C)cc3)c2cc1OC [Compound r243] | -7 | 62 | –
CCCCc1ccc(-c2nc(C)ccc2Oc2ccnc3cc(OC)c(OC)cc23)cc1 [Compound r244] | -3 | 63 | –
COc1cc2nccc(Oc3ccc(C)nc3-c3ccc(CO)cc3)c2cc1OC [Compound r245] | 80 | 99 | –
COc1cc2nccc(Oc3ccc(C)nc3-c3ccc(C(C)=O)cc3)c2cc1OC [Compound r246] | 64 | 93 | –
COc1cc2nccc(Oc3ccc(C)nc3-c3ccc(N(C)C)cc3)c2cc1OC [Compound r247] | 93 | 100 | –
COc1cc2nccc(Oc3ccc(C)nc3-c3ccc(O)cc3)c2cc1OC [Compound r248] | 99 | 100 | –
COc1ccc(-c2nc(C)ccc2Oc2ccnc3cc(OC)c(OC)cc23)cc1 [Compound r249] | 52 | 98 | –
COc1cc2nccc(Oc3ccc(C)nc3-c3ccc(Oc4ccccc4)cc3)c2cc1OC [Compound r250] | 34 | 81 | –

Structure (SMILES) | inhibition at 3 µM [%] | inhibition at 10 µM [%] | inhibition at 1 µM (1 µM) [%]
COc1cc2nccc(Oc3ccc(C)nc3-c3ccc(F)cc3)c2cc1OC [Compound r251] | 84 | 100 | –
COc1cc2nccc(Oc3ccc(C)nc3-c3ccc(Cl)cc3)c2cc1OC [Compound r252] | 16 | 78 | –
COc1cc2nccc(Oc3ccc(C)nc3-c3c(Cl)cccc3Cl)c2cc1OC [Compound r253] | 68 | 97 | –
COc1cc2nccc(Oc3ccc(C)nc3-c3cc(F)cc(F)c3)c2cc1OC [Compound r254] | 100 | 100 | –
COc1cc2nccc(Oc3ccc(C)nc3-c3cc(C)n(C)n3)c2cc1OC [Compound r256, 4-[2-(1,5-Dimethyl-1H-pyrazol-3-yl)-6-methyl-pyridin-3-yloxy]-6,7-dimethoxy-quinoline] | 98 | 100 | –
COc1cc2nccc(Oc3ccc(C)nc3-c3cc(C)nn3C)c2cc1OC [Compound r257] | 15 | 62 | –
COc1cc2nccc(Oc3cc(C)c(C)nc3-c3nc(C)c(C)s3)c2cc1OC [Compound r260, 4-[2-(4,5-Dimethylthiazol-2-yl)-5,6-dimethyl-pyridin-3-yloxy]-6,7-dimethoxy-quinoline] | 96 | 100 | –
COc1cc2nccc(Oc3ccc(C)nc3-c3cccnc3)c2cc1OC [Compound r262] | 91 | 100 | –
COc1cc2nccc(Oc3ccc(C)nc3-c3ccncc3)c2cc1OC [Compound r263] | 82 | 99 | –
COc1cc2nccc(Oc3ccc(C)nc3-c3cccc(C)n3)c2cc1OC [Compound r264] | 88 | 100 | –
COc1cc2nccc(Oc3ccc(C)nc3-c3cncnc3)c2cc1OC [Compound r265] | 45 | 85 | –
COc1cc2nccc(Oc3ccc(SC)nc3-c3ccccn3)c2cc1OC [Compound r266] | 92 | 100 | –
COc1cc2nccc(Oc3cc(C)c(C)nc3-c3ccccn3)c2cc1OC [Compound r269] | – | – | 97
COc1cc2nccc(Oc3cc(C)c(C)nc3-c3cccnc3)c2cc1OC [Compound r270] | 100 | – | –
COc1cc2nccc(Oc3cc(C)c(C)nc3-c3cccc(C)n3)c2cc1OC [Compound r271] | 94 | 100 | –
COc1cc2nccc(Oc3cc(C)c(C)nc3-c3ccc(C)cn3)c2cc1OC [Compound r272] | 98 | 100 | –
COc1cc2nccc(Oc3cc(C)c(C)nc3-c3cc(C)ccn3)c2cc1OC [Compound r273] | 99 | 100 | –
COc1cc2nccc(Oc3cc4ccccc4nc3CN(C(C)C)C(C)C)c2cc1OC [Compound r277, [3-(6,7-Dimethoxy-quinolin-4-yloxy)-quinolin-2-ylmethyl]-diisopropyl-amine] | 32 | 89 | –
